# Results published in article PMC6541551 (Journal of psychopharmacology (Oxford, England), 2018).
# “Also recorded” adds a separate entry of the source. Marks after values point to notes of the source that are not given here.
# Legend:
# mice [1] = experiment: Adverse effects screening; format: in vivo, CD-1 mice
# Screening of = format: in vivo, CD-1 mice; details: male mice, three timepoints; for Cmax of (2R,6R)-HNK in plasma: 50 mg/kg of the compound
# [2] = Rat pharmacokinetic study of; format: in vivo, Sprague-Dawley rats; details: for AUC/dose: plasma
# [3] = Mouse pharmacokinetic studies of; format: in vivo, CD-1 mice
# mice [4] = experiment: Learned helplessness test; format: in vivo, CD-1 mice; details: vs saline; for Learned helplessness: escape failures in the last 10 trials: p<0.001
# [5] = Canine pharmacokinetic study of; details: for AUC0→∞ / t1/2 / Cmax: dog plasma
# mice [6] = experiment: Open-field test; format: in vivo, CD-1 mice; details: vs saline; for Open-field total distance travelled: 15, 50, 150, 450 mg/kg p.o., 60 min after administration
# mice [7] = experiment: Forced-swim test; format: in vivo, CD-1 mice; details: vs saline
# [8] = brain, female mice, i.v., 50 mg/kg
# [9] = brain, female mice, p.o., 50 mg/kg
# [10] = brain, male mice, i.p., 50 mg/kg
# [11] = brain, male mice, i.v., 50 mg/kg
# [12] = male mice, p.o., 50 mg/kg, cohort p.o. vs i.p.
# [13] = male mice, p.o., 10 min, cohort p.o. vs i.v.
# [14] = plasma, female mice, i.v., 50 mg/kg
# [15] = plasma, female mice, p.o., 50 mg/kg
smiles,measurement,setting,value
"N[C@@]1(c2ccccc2Cl)CCC[C@@H](O)C1=O [(2R,6R)-HNK, (2R,6R)-hydroxynorketamine]","Backwards movement, mean score±SEM","mice [1]; 450 mg/kg p.o., 60 min",0
same,"Ptosis, mean score±SEM","mice [1]; 450 mg/kg p.o., 60 min",0
same,"Sniffing, mean score±SEM","mice [1]; 450 mg/kg p.o., 60 min",0
same,"Tail flicking, mean score±SEM","mice [1]; 450 mg/kg p.o., 60 min",0
same,"Piloerection, mean score±SEM","mice [1]; 450 mg/kg p.o., observed over 60 min, n=4/group",0.25±0.25
same,Overall adverse effects,mice [1]; up to a dose of 450 mg/kg p.o.,"minimal, if any, adverse effects"
same,Relative BA (plasma AUClast p.o. / i.p.),Screening of; 50 mg/kg,47%
same,"Cmax of (2R,6R)-HNK in plasma",Screening of; i.p.,13400 ng/mL
same,"AUClast of (2R,6R)-HNK in plasma","Screening of; i.p., 50 mg/kg",5910 ng·h/mL
same,"Cmax of (2R,6R)-HNK in plasma",Screening of; p.o.,5900 ng/mL
same,"AUC (systemic exposure to (2R,6R)-HNK)","Screening of; p.o., 50 mg/kg",2.80 µg/mL/h
same,"AUClast of (2R,6R)-HNK in plasma","Screening of; p.o., 50 mg/kg",2800 ng·h/mL
same,Cl,"[2]; male rats, i.v.",27 mL/min/kg
same,Vss,"[2]; male rats, i.v.",7.5 L/kg
same,AUC/dose,"[2]; male rats, i.v.",0.627 µg·kg·h/mL/mg
same,AUC/dose,"[2]; male rats, p.o.",0.265 µg·kg·h/mL/mg
same,AUC0→∞,"[2]; rat brain, i.v., 10 mg/kg",6090 ng·h/mL
same,t1/2,"[2]; rat brain, i.v., 10 mg/kg",528 min
same,Cmax,"[2]; rat brain, i.v., 10 mg/kg, measured five minutes after dosing, not actual peak",9.13^a μg/mL
same,AUC0→∞,"[2]; rat brain, p.o., 10 mg/kg",2580 ng·h/mL
same,Cmax,"[2]; rat brain, p.o., 10 mg/kg",1.52 µg/mL
same,t1/2,"[2]; rat brain, p.o., 10 mg/kg",342 min
same,AUC0→∞,"[2]; rat plasma, i.v., 10 mg/kg",6270 ng·h/mL
same,t1/2,"[2]; rat plasma, i.v., 10 mg/kg",480 min
same,Cmax,"[2]; rat plasma, i.v., 10 mg/kg, measured five minutes after dosing, not actual peak",9.56^a μg/mL
same,AUC0→∞,"[2]; rat plasma, p.o., 10 mg/kg",2650 ng·h/mL
same,t1/2,"[2]; rat plasma, p.o., 10 mg/kg",414 min
same,Cmax,"[2]; rat plasma, p.o., single 10 mg/kg (free drug dose), eight timepoints",1.50 µg/mL
same,BA (absolute oral),"[2]; rats, 10 mg/kg p.o. vs i.v., plasma AUC0→∞",42%
same,Brain to plasma ratio,"[2]; rats, both i.v. and p.o., 10 mg/kg",0.97
same,time of peak concentration,"[2]; rats, plasma and brain, i.v., 10 mg/kg",0.083 h
same,AUC0→∞,[3]; [8],9.53 µg·h/g
same,t1/2,[3]; [8],36 min
same,AUC0→∞,[3]; [9],6.96 µg·h/g
same,t1/2,[3]; [9],42 min
same,Cmax,"[3]; brain, female mice, p.o., single 50 mg/kg",11.6 µg/g
same,AUC0→∞,[3]; [10],4.94 µg·h/g
same,t1/2,[3]; [10],24 min
same,Cmax,"[3]; brain, male mice, i.p., single 50 mg/kg",12.7 µg/g
same,AUC0→∞,[3]; [11],8.38 µg·h/g
same,t1/2,[3]; [11],30 min
same,t1/2,"[3]; brain, male mice, p.o., 50 mg/kg",42 min
same,AUC0→∞,"[3]; brain, male mice, p.o., 50 mg/kg, range of two cohorts",2.85−5.19 μg/g×h
same,Cmax,"[3]; brain, male mice, p.o., single 50 mg/kg, range of two cohorts",6.49−8.60 μg/g
same,Absolute BA (plasma AUC0→∞ p.o. / i.v.),"[3]; female mice, 50 mg/kg",52%
same,maximal levels p.o. lower than i.v.,"[3]; female mice, 50 mg/kg, plasma",1.7 ×
same,Cl,"[3]; female mice, i.v.",51 mL/min/kg
same,Vss,"[3]; female mice, i.v.",0.80 L/kg
same,Brain to plasma ratio,"[3]; female mice, i.v., 50 mg/kg",0.67
same,AUC/dose,"[3]; female mice, i.v., plasma",0.330 µg·kg·h/mL/mg
same,Brain to plasma ratio,"[3]; female mice, p.o., 50 mg/kg",0.95
same,AUC/dose,"[3]; female mice, p.o., plasma",0.170 µg·kg·h/mL/mg
same,Absolute BA (plasma AUC0→∞ p.o. / i.v.),"[3]; male mice, 50 mg/kg",46%
same,maximal brain concentration p.o. as % of i.p.,"[3]; male mice, 50 mg/kg",51%
same,maximal plasma concentration p.o. as % of i.p.,"[3]; male mice, 50 mg/kg",44.1%
same,Relative BA (plasma AUC0→∞ p.o. / i.p.),"[3]; male mice, 50 mg/kg, five timepoints",62%
same,highest concentrations p.o. lower than i.p. and i.v.,"[3]; male mice, 50 mg/kg, plasma and brain",2–3 fold
same,brain concentration p.o. as % of i.v.,"[3]; male mice, 10 min after dosing, 50 mg/kg",42%
same,Brain to plasma ratio,"[3]; male mice, i.p., 50 mg/kg",0.96
same,Cl,"[3]; male mice, i.v.",74 mL/min/kg
same,Vss,"[3]; male mice, i.v.",1.7 L/kg
same,Brain to plasma ratio,"[3]; male mice, i.v., 50 mg/kg",0.86
same,AUC/dose,"[3]; male mice, i.v., plasma, normalized to free drug dose",0.226 µg·kg·h/mL/mg
same,maximal brain concentration,[3]; [12],6.49 µg/g
same,maximal plasma concentration,[3]; [12],5.90 µg/mL
same,Brain to plasma ratio,"[3]; male mice, p.o., 50 mg/kg, range of two cohorts",0.90−1.16
same,brain concentration at earliest timepoint,[3]; [13],8.60 µg/g
same,plasma concentration at earliest timepoint,[3]; [13],5640 ng/mL
same,Brain to plasma exposure ratio (brain penetrance),"[3]; male mice, p.o., cohort p.o. vs i.p.",0.90
same,Brain penetrance (brain to plasma ratio),"[3]; male mice, p.o., cohort p.o. vs i.v.",1.16
same,AUC/dose,"[3]; male mice, p.o., plasma, normalized to free drug dose",0.104 µg·kg·h/mL/mg
same,Brain to plasma ratio,"[3]; mice and rats, following oral administration (abstract)",0.67–1.2
same,Brain to plasma ratio,"[3]; mice, both sexes and all routes of administration",0.67–1.2
same,clearance,"[3]; mice, i.v., range of sexes",51 to 74 mL/min/kg
same,dose-normalized plasma exposure (AUC/dose),"[3]; mice, i.v., range of sexes",0.226 to 0.330 µg·kg·h/mL/mg
same,highest plasma concentrations in females higher than in males,"[3]; mice, p.o. and i.v., 50 mg/kg",1.5–2.6 ×
same,dose-normalized plasma exposure (AUC/dose),"[3]; mice, p.o., range of sexes",0.104 to 0.170 µg·kg·h/mL/mg
same,Tmax,"[3]; mice, plasma and brain, all routes (i.p., p.o., i.v.), 50 mg/kg",10 min
same,half-life (t1/2),"[3]; mice, plasma, range over routes and sexes",12 to 48 min
same,absolute oral BA,"[3]; mice, range of males and females",46–52%
same,AUC0→∞,[3]; [14],14.2 µg·h/mL
same,t1/2,[3]; [14],12 min
same,AUC0→∞,[3]; [15],7.33 µg·h/mL
same,t1/2,[3]; [15],18 min
same,Cmax,"[3]; plasma, female mice, p.o., single 50 mg/kg",14.7 µg/mL
same,t1/2,"[3]; plasma, male mice, i.p., 50 mg/kg",30 min
same,AUC0→∞,"[3]; plasma, male mice, i.p., single 50 mg/kg",5.12 µg·h/mL
same,Cmax,"[3]; plasma, male mice, i.p., single 50 mg/kg (43.1 mg/kg free base), five timepoints",13.4 µg/mL
same,t1/2,"[3]; plasma, male mice, i.v., 50 mg/kg",30 min
same,AUC0→∞,"[3]; plasma, male mice, i.v., single 50 mg/kg",9.76 µg·h/mL
same,t1/2,"[3]; plasma, male mice, p.o., 50 mg/kg",48 min
same,AUC0→∞,"[3]; plasma, male mice, p.o., single 50 mg/kg, range of two cohorts",3.18−4.49 μg/mL×h
same,Learned helplessness: escape failures in the last 10 trials,"mice [4]; 50 mg/kg i.p., 24 h after treatment",reduced
same,Learned helplessness: total number of escape failures,"mice [4]; 50 mg/kg i.p., tested 24 h after treatment, p<0.01",reduced the total number of escape failures
same,Learned helplessness: escape failures in the last 10 trials,"mice [4]; 50 and 150 mg/kg p.o., 24 h after treatment",robust reduction in the number of escape failures; also recorded: effective at reversing helplessness
same,Learned helplessness: total number of escape failures,"mice [4]; 50 and 150 mg/kg p.o., 24 h after treatment, p<0.05",robust reduction in the number of escape failures; also recorded: effective at reversing helplessness
same,AUC0→∞,"[5]; i.v., 10 mg/kg",7830 ng·h/mL
same,t1/2,"[5]; i.v., 10 mg/kg",96 min
same,Cmax,"[5]; i.v., 10 mg/kg, measured five minutes after dosing, not actual peak",8.87^a μg/mL
same,AUC0→∞,"[5]; p.o., 10 mg/kg",4540 ng·h/mL
same,t1/2,"[5]; p.o., 10 mg/kg",90 min
same,Cmax,"[5]; p.o., single 10 mg/kg (free drug dose)",3.44 µg/mL
same,BA (absolute oral),"[5]; dogs, 10 mg/kg p.o. vs i.v.",58%
same,time of peak plasma concentration,"[5]; dogs, i.v., 10 mg/kg, first collection time point",five minutes
same,Tmax,"[5]; dogs, plasma, p.o., 10 mg/kg",16.8 min
same,Cl,"[5]; male dogs, i.v.",21 mL/min/kg
same,Vss,"[5]; male dogs, i.v.",1.2 L/kg
same,AUC/dose,"[5]; male dogs, i.v., plasma",0.783 µg·kg·h/mL/mg
same,AUC/dose,"[5]; male dogs, p.o., plasma",0.454 µg·kg·h/mL/mg
same,Open-field total distance travelled,mice [6],did not alter the total distance travelled at any dose tested
same,Open-field total distance travelled,"mice [6]; listed as (2R,6R)-hydroxynorketamine",did not alter locomotor activity
same,Open-field time spent in the center (central 50%) of the arena,"mice [6]; 15-450 mg/kg p.o., 60 min",no significant effect; also recorded: did not alter
same,Forced-swim test immobility time,"mice [7]; 15 mg/kg i.p., 24-hour re-test, p<0.01",reduced immobility time
same,Forced-swim test immobility time,"mice [7]; 15 mg/kg i.p., one hour after administration, p<0.05",reduced immobility time
same,Forced-swim test immobility time,"mice [7]; 15-150 mg/kg p.o., 24 h after treatment, p<0.01",reductions in immobility time
same,Forced-swim test immobility time,"mice [7]; 15-150 mg/kg p.o., one hour after treatment, p<0.05",reductions in immobility time
